From patent US7829114B2, “Capsules containing aqueous fill compositions stabilized with derivatized cyclodextrin” (CyDex Pharmaceuticals, Inc., priority 2002, dated 2010)
Where a name gives a salt, the structure may show the parent alone.

Experiments:
[1] = Clarity / appearance of fill composition; format: physicochemical; conditions: normal dose of drug in 1 gram
Description: (§1) Agitation continued until all the SAE-CD dissolved.
Clarity of the fill compositions herein can be determined by visual inspection; however, other known methods for determining the clarity of a fill composition can be performed. Exemplary other methods include transmittance spectrophotometry at a wavelength of 800 nm.

[2] = Water activity measurement; format: physicochemical; conditions: for Water Activity (approximate values): about 20-25° C.
Description: Without being held bound to a particular mechanism, it is believed that the increasing the concentration of derivatized cyclodextrin present in the aqueous fill composition results in reduced water activity for the fill composition. The table below provides a summary of water activity versus concentration of cyclodextrin derivatives or some shell-stabilizing materials in water at about 20-25° C., or ambient temperature.
The values detailed above are approximate and can vary from instrument to instrument. These values were determined according to the procedure described herein on a water activity meter described herein. The numbers can also vary within the standard deviation of a particular instrument. It is also possible for the numbers to vary according to the accuracy and reproducibility of the instrument used as well as the method for calibrating the instrument with solution standards of known water activity.
Water activity was measured by placing a sample solution in a small, sealed container and determining the equilibrium humidity and temperature in the container. Instruments such as the HygroLab 3 from Rotronic Instrument Corp. , Huntington, N.Y. were used to measure the water activity. The humidity is determined using a thin film capacitive sensor in the headspace of the container. The temperature is determined using a Pt RTD 100 sensor. From these measurements the activity of water (Aw) is calculated by the instrument. The instrument has an accuracy of about ±0.015 Aw and a repeatability of about ±0.005 Aw. Carefully prepared salt-containing stock solutions of known concentration and water activity were used to calibrate the instrument prior to use.

[3] = Shell stability toward aqueous fill composition, statements on soft gelatin capsules; format: physicochemical; conditions: for stability provided to capsules: about ≧60% wt.
[4] = Shell stability on exposure to aqueous fill composition (half-shell integrity test, H.S.I.T.); format: physicochemical; conditions: LFC
Description: (§2) The same tests were performed on gelatin capsules obtained from CARDINAL HEALTH.

[5] = as above; conditions: LFB
Description: A study was conducted to determine whether or not complexation of a drug to the SAE-CD alters the ability of the SAE-CD to stabilize the capsule shell against dissolution, erosion, swelling or degradation caused by water in the fill composition enclosed within the capsule shell. Banner's hydrophilic, HFB, and lipophilic, LFB, air fill size 35 oval gelatin capsules were used in this study, which was performed as described below. […] The SAE-CD was slowly added to the water while it was stirring and on a hot plate. Agitation continued until all the SAE-CD dissolved. The SAE-CD was divided by weighing in equal amounts into nine vials (one for each drug). […] The amount of drug added produced a composition that contained a normal dose of drug in 1 gram. The vials were agitated and heated until a solution was obtained or the active was uniformly suspended. […]
Method A: Half-Shell integrity Test (H.S.I.T.)
In a closed container, a portion of a capsule shell is exposed to an aqueous fill composition comprising a known amount of derivatized cyclodextrin, water and optionally one or more other excipients. Observation of changes, or lack thereof, on the exposed portion's size, appearance, shape, dissolution, erosion, degradation, hardness, and/or translucence are recorded periodically over time. A rating scale is used to quantify the overall performance of the capsule portion during the test.

[6] = as above; format: physicochemical; conditions: HFB
Description: as §1

[7] = as above; format: physicochemical; conditions: HFC
Description: as §2
It has been discovered that PEG has a beneficial effect upon the shell-stabilizing property of an aqueous fill composition comprising SAE-CD. FIG. 6a depicts a ternary graph correlating the concentration of SAE-CD, water and PEG in a fill composition to the H.S.I.T. rating of a soft shell capsule exposed to the fill composition. Aqueous fill solutions comprising differing amounts of PEG, SAE-CD and water were prepared. The stability tests were conducted as described below. The HFC soft gelatin capsules described herein were used. For a composition comprising 40% wt. SBE-CD, 40% wt. water and 20% wt. PEG, the shell was stable for greater than 5 days. For a composition comprising 35% wt. SBE-CD, 35% wt. water and 30% wt. PEG, the shell was stable for greater than 5 days. For a composition comprising 18% wt. SBE-CD, 42% wt. water and 40% wt. PEG, the shell was stable for greater than 5 days. Under each of the conditions tested, the control sample excluded SAE-CD, i.e., containing only water and PEG at the indicated concentration, and failed within 24 hours. About the same results were obtained for the HFB (FIG. 6b), LFB (FIG. 7a) and LFC (FIG. 7b) soft gelatin capsules. Increasing the SAE-CD concentration to values higher than those indicated further increases the shelf-life of the shell or provides an HSIT rating of at least 4. Stabilized aqueous fill composition-containing capsule formulations can be achieved with each capsule if the following fill compositions are used.

[8] = 40% wt. cyclodextrin derivative in water
[9] = 50% wt. cyclodextrin derivative in water
[10] = 60% wt. cyclodextrin derivative in water
[11] = 70% wt. cyclodextrin derivative in water

**Q.** Which Fill composition appearance ([1]; 60% w/w SAE-CD) does the source give for `COc1ccccc1OCCNCC(O)COc1cccc2[nH]c3ccccc3c12` (centres unmarked) [Carvedilol] here?
**A.** solution

**Q.** And the Fill composition appearance ([1]; 70% w/w SAE-CD)?
**A.** clear solution

**Q.** What does the source list for `C(=C\c1ccccc1)/CN1CCN(C(c2ccccc2)c2ccccc2)CC1` [Cinnarizine]?
**A.** Fill composition appearance ([1]; 60% w/w SAE-CD): suspension; Fill composition appearance ([1]; 70% w/w SAE-CD): suspension

**Q.** For `CC(C)(C(=O)O)c1ccc(C(O)CCCN2CCC(C(O)(c3ccccc3)c3ccccc3)CC2)cc1` (centres unmarked) [Fexofenadine HCl], which Fill composition appearance ([1]; 60% w/w SAE-CD) is on record?
**A.** solution

**Q.** What about the Fill composition appearance ([1]; 70% w/w SAE-CD) of the same compound?
**A.** clear solution

**Q.** With `C[C@]12CCC(=O)C=C1CC[C@@H]1[C@@H]2[C@@H](O)C[C@@]2(C)[C@H]1CC[C@]2(O)C(=O)CO` [Hydrocortisone] as the compound, how does the Fill composition appearance ([1]; 60% w/w SAE-CD) read?
**A.** clear solution

**Q.** And the Fill composition appearance ([1]; 70% w/w SAE-CD)?
**A.** clear solution

**Q.** Which Fill composition appearance ([1]; 60% w/w SAE-CD) does the source give for `COc1ccc2c(c1)c(CC(=O)O)c(C)n2C(=O)c1ccc(Cl)cc1` [Indomethacin] here?
**A.** solution

**Q.** And the Fill composition appearance ([1]; 70% w/w SAE-CD)?
**A.** clear solution

**Q.** Which Fill composition appearance ([1]; 60% w/w SAE-CD) does the source give for `C[C@]12CCC(=O)C=C1CC[C@@H]1[C@@H]2CC[C@@]2(C)[C@H]1CC[C@]2(C)O` [Methyltestosterone] here?
**A.** clear solution

**Q.** And the Fill composition appearance ([1]; 70% w/w SAE-CD)?
**A.** clear solution

**Q.** For `CN[C@H]1CC[C@@H](c2ccc(Cl)c(Cl)c2)c2ccccc21` [Sertraline HCl], which Fill composition appearance ([1]; 60% w/w SAE-CD) is on record?
**A.** solution

**Q.** What about the Fill composition appearance ([1]; 70% w/w SAE-CD) of the same compound?
**A.** clear solution

**Q.** What does the source list for `C[C@]12CC[C@H]3[C@@H](CCC4=CC(=O)CC[C@@]43C)[C@@H]1CC[C@@H]2O` [Testosterone]?
**A.** Fill composition appearance ([1]; 60% w/w SAE-CD): clear solution; Fill composition appearance ([1]; 70% w/w SAE-CD): clear solution

**Q.** With “Dimethylcyclodextrin [DMCD, reference compound]” as the compound, how does the water activity ([2]; 43% wt. in water, the approximate saturation concentration) read?
**A.** approximately 0.996

**Q.** And the “effect on stability of the shell” value ([3]; about 42% wt., maximum achievable concentration, FIG. 2)?
**A.** only slightly increased the stability of the shell

**Q.** And the “ability to stabilize soft gelatin capsules from water in the fill composition” value ([3]; at saturation concentration in water, FIG. 4)?
**A.** unable to stabilize

**Q.** Which “Increase in shell size” value [4, 8] does the source give for hydroxypropyl cyclodextrin [HP-CD] here?
**A.** >3 × × original

**Q.** What about the Observations [4, 8] of the same compound?
**A.** Deformed

**Q.** And the Time for failure [4, 8]?
**A.** 2 days

**Q.** And the “Increase in shell size” value [4, 9]?
**A.** 2 × × original

**Q.** What about the Observations [4, 9] of the same compound?
**A.** Shape intact

**Q.** What about the Time for failure [4, 9] of the same compound?
**A.** 4 days

**Q.** And the “Increase in shell size” value [4, 10]?
**A.** 2 × × original

**Q.** What about the Observations [4, 10] of the same compound?
**A.** Slight deformity

**Q.** And the Time for failure [4, 10]?
**A.** 7 days

**Q.** And the “Increase in shell size” value [4, 11]?
**A.** 1.5 × × original

**Q.** And the Observations [4, 11]?
**A.** Shape intact

**Q.** And the Time for failure [4, 11]?
**A.** 14 days

**Q.** What about the “Water Activity (approximate values)” value ([2]; 10 % w/w in water) of the same compound?
**A.** ~0.99

**Q.** What about the “Water Activity (approximate values)” value ([2]; 20 % w/w in water) of the same compound?
**A.** ~0.99

**Q.** And the “Water Activity (approximate values)” value ([2]; 30 % w/w in water)?
**A.** ~0.98

**Q.** What about the “Water Activity (approximate values)” value ([2]; 40 % w/w in water) of the same compound?
**A.** ~0.98

**Q.** And the “Water Activity (approximate values)” value ([2]; 50 % w/w in water)?
**A.** ~0.97

**Q.** And the “Water Activity (approximate values)” value ([2]; 60 % w/w in water)?
**A.** ~0.94

**Q.** What about the “Water Activity (approximate values)” value ([2]; 70 % w/w in water) of the same compound?
**A.** ~0.93

**Q.** And the “shelf-life of soft gelatin capsules” value ([3]; 60% wt. or more based upon total weight of water and HP-CD)?
**A.** at least one week

**Q.** What about the “stability provided to capsules” value ([3]; LFB and LFC soft gelatin capsules as printed, FIG. 2) of the same compound?
**A.** at least one week stability

**Q.** What about the “stability provided to capsules” value ([3]; LFB and LFC soft gelatin capsules, FIG. 1) of the same compound?
**A.** at least a one-week stability

**Q.** What about the “Increase in shell size” value [5, 8] of the same compound?
**A.** >3 × × original

**Q.** And the Observations [5, 8]?
**A.** Deformed

**Q.** What about the Time for failure [5, 8] of the same compound?
**A.** 2 days

**Q.** What about the “Increase in shell size” value [5, 9] of the same compound?
**A.** 2 × × original

**Q.** What about the Observations [5, 9] of the same compound?
**A.** shape intact

**Q.** What about the Time for failure [5, 9] of the same compound?
**A.** 4 days

**Q.** And the “Increase in shell size” value [5, 10]?
**A.** 2 × × original

**Q.** And the Observations [5, 10]?
**A.** Shape intact

**Q.** What about the Time for failure [5, 10] of the same compound?
**A.** 7 days

**Q.** And the “Increase in shell size” value [5, 11]?
**A.** 1.5 × × original

**Q.** What about the Observations [5, 11] of the same compound?
**A.** Shape intact

**Q.** What about the Time for failure [5, 11] of the same compound?
**A.** 14 days

**Q.** And the “Increase in shell size” value [6, 8]?
**A.** >3 × × original

**Q.** What about the Observations [6, 8] of the same compound?
**A.** Deformed

**Q.** What about the Time for failure [6, 8] of the same compound?
**A.** 2 days

**Q.** What about the “Increase in shell size” value [6, 9] of the same compound?
**A.** 2 × × original

**Q.** What about the Observations [6, 9] of the same compound?
**A.** shape intact

**Q.** And the Time for failure [6, 9]?
**A.** 4 days

**Q.** And the “Increase in shell size” value [6, 10]?
**A.** 2 × × original

**Q.** And the Observations [6, 10]?
**A.** Shape intact

**Q.** And the Time for failure [6, 10]?
**A.** 7 days

**Q.** What about the “Increase in shell size” value [6, 11] of the same compound?
**A.** 1.5 × × original

**Q.** And the Observations [6, 11]?
**A.** Shape intact

**Q.** What about the Time for failure [6, 11] of the same compound?
**A.** 14 days

**Q.** And the “Increase in shell size” value [7, 8]?
**A.** >3 × × original

**Q.** And the Observations [7, 8]?
**A.** Deformed

**Q.** And the Time for failure [7, 8]?
**A.** 2 days

**Q.** What about the “Increase in shell size” value [7, 9] of the same compound?
**A.** 2 × × original

**Q.** And the Observations [7, 9]?
**A.** shape intact

**Q.** What about the Time for failure [7, 9] of the same compound?
**A.** 4 days

**Q.** And the “Increase in shell size” value [7, 10]?
**A.** 2 × × original

**Q.** And the Observations [7, 10]?
**A.** Slight deformity

**Q.** What about the Time for failure [7, 10] of the same compound?
**A.** 7 days

**Q.** And the “Increase in shell size” value [7, 11]?
**A.** 1.5 × × original

**Q.** What about the Observations [7, 11] of the same compound?
**A.** Shape intact

**Q.** And the Time for failure [7, 11]?
**A.** 14 days
